Patent EP0173319A1, “Substituted arylsulfonyl guanidines” (BAYER AG, priority 1984, dated 1986)

Key:
Testpflanzen [1] = test: Pre-emergence-Test (herbicidal); assay type: in vivo; settings: soil watered 24 h after sowing, damage rated after three weeks vs untreated control (0 % = keine Wirkung, 100 % = totale Vernichtung), rate or species not given
Description: (§1) Lösungsmittel: 5 Gewichtsteile Aceton Emulgator: 1 Gewichtsteil Alkylarylpolyglykolether
(§2) Zur Herstellung einer zweckmäßigen Wirkstoffzubereitung vermischt man 1 Gewichtsteil Wirkstoff mit der angegebenen Menge Lösungsmittel, gibt die angegebene Menge Emulgator zu und verdünnt das Konzentrat mit Wasser auf die gewünschte Konzentration.
Samen der Testpflanzen werden in normalen Boden ausgesät und nach 24 Stunden mit der Wirkstoffzubereitung begossen. Dabei hält man die Wassermenge pro Flächeneinheit zweckmäßigerweise konstant. Die Wirkstoffkonzentration in der Zubereitung spielt keine Rolle, entscheidend ist nur die Aufwandmenge des Wirkstoffs pro Flächeneinheit. Nach drei Wochen wird der Schädigungsgrad der Pflanzen bonitiert in % Schädigung im Vergleich zur Entwicklung der unbehandelten Kontrolle. Es bedeuten: • 0 % = keine Wirkung (wie unbehandelte Kontrolle) 100 % = totale Vernichtung

Testpflanzen [2] = test: Post-emergence-Test (herbicidal); assay type: in vivo; settings: test plants 5 - 15 cm high sprayed, damage rated after three weeks vs untreated control (0 % = keine Wirkung, 100 % = totale Vernichtung), rate or species not given
Description: as §1, §2
Mit der Wirkstoffzubereitung spritzt man Testpflanzen, welche eine Höhe von 5 - 15 cm haben so, daß die jeweils gewünschten Wirkstoffmengen pro Flächeneinheit ausgebracht werden. Die Konzentration der Spritzbrühe wird so gewählt, daß in 2000 1 Wasser/ha die jeweils gewünschten Wirkstoffmengen ausgebracht werden. Nach drei Wochen wird der Schädigungsgrad der Pflanzen bonitiert in % Schädigung im Vergleich zur Entwicklung der unbehandelten Kontrolle.
Es bedeuten: • 0 % = keine Wirkung (wie unbehandelte Kontrolle) 100 % = totale Vernichtung

| SMILES | herbizide Wirksamkeit (Testpflanzen [1]) | herbizide Wirksamkeit (Testpflanzen [2]) |
| --- | --- | --- |
| CON(C(=NS(=O)(=O)c1ccccc1SC)Nc1nc(C)cc(C)n1)S(=O)(=O)c1ccccc1SC [Beispiel 1, N'-(4,6-Dimethyl-pyrimidin-2-yl)-N''-methoxy-N'',N'''-bis-(2-methylthio-benzolsulfonyl)-guanidin] | sehr gute herbizide Wirksamkeit | sehr gute herbizide Wirksamkeit |
| Cc1cc(C)nc(NC(=NS(=O)(=O)c2ccccc2S(=O)(=O)N(C)C)NN(C)C)n1 [Beispiel 2, N'-(4,6-Dimethyl-pyrimidin-2-yl)-N''-dimethylamino-N'''-(2-dimethylamino-sulfonyl-benzolsulfonyl)-guanidin] | sehr gute herbizide Wirksamkeit | sehr gute herbizide Wirksamkeit |
| Cc1cc(C)nc(NC(=NS(=O)(=O)c2ccccc2S(=O)(=O)N(C)C)N(OCC(C)C)S(=O)(=O)c2ccccc2S(=O)(=O)N(C)C)n1.[K] [Beispiel 4, N'-(4,6-Dimethyl-pyrimidin-2-yl)-N''-(2-methyl-propoxy)-N'',N'''-bis-(2-dimethylaminosulfonyl-benzolsulfonyl)-guanidin-Kaliumsalz] | – | sehr gute herbizide Wirksamkeit |
